{"source": "a melting point compilation (Tetko et al.; mined from patent text by program, amines drawn as free bases though some values may be those of a salt)"}
{"units": {"melting point": "°C"}}
{"smiles": "COC(=O)C(C)(C)c1ccc2cc(OC)ccc2c1", "melting point": "97 to 98"}
{"smiles": "COc1cc(NC(=O)c2cccc(CCc3cc(Nc4ccccc4)n[nH]3)c2)cc(OC)c1OC", "melting point": "67 to 69"}
{"smiles": "Cc1cc([N+](=O)[O-])cc(C)c1Oc1ccc(O)c(C(=O)c2ccc(F)cc2)c1", "melting point": "148 to 150"}
{"smiles": "CCCCCCCCOCCCCC(=O)O", "melting point": "< 30"}
{"smiles": "CN1C(=O)Cc2ccccc2C1=O", "melting point": "113 to 115"}
{"smiles": "Cc1ccc(NC(=N)c2ccccc2)cc1NC(=O)/C=C/c1ccccc1C(F)(F)F", "melting point": "220 to 222"}
{"smiles": "Cc1ccc(-n2ncc(C(=O)O)c2C)cc1", "melting point": 203}
{"smiles": "C1=C(c2c[nH]c3ccccc23)CCN(CC2COc3ccc4ncccc4c3O2)C1", "note": "(stereo not given)", "melting point": 217}
{"smiles": "CC(=O)NC[C@H]1CN(c2ccc(N3CCC(n4nnnc4N)CC3)c(F)c2)C(=O)O1", "melting point": "174 to 176"}
{"smiles": "CN1CCC(OC2c3cccc(-c4cccc(N)c4)c3CCn3cc(-c4ccccc4)nc32)CC1", "note": "(stereo not given)", "melting point": 120}
{"smiles": "CC(C)OC(=O)c1cc(NC(=S)OC(C)C)ccc1Cl", "melting point": 89}
{"smiles": "CCOC(=O)C(C)(C(=O)Nc1cc(Cl)cc(Cl)c1)S(C)=O", "note": "(stereo not given)", "melting point": "124 to 127"}
{"smiles": "Nc1cc(S(N)(=O)=O)ccc1S(=O)(=O)CCCO", "melting point": "136 to 138"}
{"smiles": "Cc1cc(C2(C(F)(F)F)CC(c3ccc(S(C)=O)cc3)=NO2)ccc1NC(=O)c1cccc(I)c1C(=O)NC(C)C", "note": "(stereo not given)", "melting point": "134 to 152"}
{"smiles": "CN(CCOc1ccc(CCCN2C(=O)COC2=O)cc1F)c1ccccn1", "melting point": "124 to 125"}
{"smiles": "c1ccc2cc(OCCCNN3CCCCC3)ccc2c1", "melting point": 78}
{"smiles": "O=C(O)C1CC(O)CN1C(=O)c1ccc2c(c1)OCCO2", "note": "(stereo not given)", "melting point": 142}
{"smiles": "O=C1NCN(c2ccccc2)C12CCN(C[C@@H]1CCc3ccc(Cl)cc3[C@H]1O)CC2", "note": "(relative stereo)", "melting point": "248 to 249"}
{"smiles": "CCOC(=O)c1cc2c(F)c(Cl)ccc2[nH]1", "melting point": "143 to 145"}
{"smiles": "O=Cc1cc2ccccc2n1-c1cccnc1", "melting point": "101 to 103"}
{"smiles": "CC(=O)Nc1ncc2ncn([C@@H]3C[C@H](OC(C)=O)[C@@H](O)[C@H]3O)c2n1", "note": "(racemic)", "melting point": "222 to 223"}
{"smiles": "CC(C)c1n[nH]c2c(NCc3ccccc3)ncnc12", "melting point": "153 to 154"}
{"smiles": "CC(ON1C(C)(C)CC2(CC1(C)C)OCC(C)(C)CO2)c1ccc(O)cc1", "note": "(stereo not given)", "melting point": "133 to 134"}
{"smiles": "C=Cn1cc(C(=O)O)c(=O)c2ccc(N3CCN(C)CC3)nc21", "melting point": "238 to 239"}
{"smiles": "COc1cc2c(cc1Cl)CCNCC2c1ccc(Br)cc1", "note": "(stereo not given)", "melting point": "139 to 140"}
{"smiles": "CCCCCC(O)C=CC1C(O)CC(=O)C1CCCCCCC(=O)Oc1ccc(-c2cc(=S)ss2)cc1", "note": "(stereo not given)", "melting point": "101 to 105"}
{"smiles": "NS(=O)(=O)c1cc2c(cc1Cl)C(=O)NC2=O", "melting point": "121 to 125"}
{"smiles": "CCOC(=O)CCCOc1ccc(C(=O)Nc2ccccc2S(=O)(=O)c2ccccc2-c2nnn[nH]2)cc1", "melting point": "182 to 184"}
{"smiles": "Nc1c(Br)cc([N+](=O)[O-])cc1C(F)(F)F", "melting point": 84}
{"smiles": "COc1cc(NS(=O)(=O)c2ccc(Cl)cc2)c(C(=O)Nc2ccc(S(=O)(=O)N3CCSCC3)cc2)cc1OC", "melting point": "216 to 219"}
{"smiles": "CNC(=O)C1(Nc2nc(Nc3cc4c(cc3OC)CCN(CC(=O)N(C)C)CC4)ncc2Cl)CC1", "melting point": "118 to 125"}
{"smiles": "Cc1c(SCCN2CCNCC2)ccnc1CSc1nc2ccccc2[nH]1", "melting point": "166 to 168"}
{"smiles": "O=C(O)CCNC(=O)c1ccc(-c2ccccc2OC2OC(CO)C(O)C(O)C2O)cc1", "note": "(stereo not given)", "melting point": "101 to 104"}
{"smiles": "CC(C(=S)NCN1CCOCC1)c1ccccn1", "note": "(stereo not given)", "melting point": 69}
{"smiles": "O=C1Nc2ccc(Cl)cc2C1(Cl)c1cccc(F)c1F", "note": "(stereo not given)", "melting point": 248}
{"smiles": "Fc1ccc2[nH]cc([C@H]3CC[C@H](NCc4ccccc4)CC3)c2c1", "melting point": "131 to 133"}
{"smiles": "COc1ccc(CNc2nc(Cl)nc(Cl)c2C(=O)O)cc1Cl", "melting point": "150 to 151"}
{"smiles": "C=CCOc1cnc(SC)nc1", "melting point": "41 to 42"}
{"smiles": "O=C(Nc1ccc(CN2CCC(=O)C(=C3SC=CS3)C2=O)cc1)OCc1ccccc1", "melting point": "175 to 176"}
{"smiles": "Cc1nc(N)sc1-c1ccnc(Nc2ccc(N3CCOCC3)cc2)n1", "melting point": "300 to 304"}
{"smiles": "CCCC(=O)OC1c2ccccc2C(=O)N1c1ccc2ccc(Cl)nc2n1", "note": "(stereo not given)", "melting point": 140}
{"smiles": "CN1C(=O)C(=O)N(Cc2ccccc2)CC1(CCOC1CCCCO1)c1ccc(Cl)c(Cl)c1", "note": "(stereo not given)", "melting point": 178}
{"smiles": "NC(=O)c1nnn(Cc2ccccc2Cl)c1N", "melting point": "206 to 208"}
{"smiles": "CON=C(C(=O)OC)C1=C(C(=O)c2ccc(F)cc2)CC(C)=C(C)C1", "melting point": "97 to 98"}
{"smiles": "CN(C)S(=O)(=O)NCc1ccc(C(c2cc(F)ccc2F)S(=O)(=O)c2ccc(Cl)cc2)nc1", "note": "(stereo not given)", "melting point": "177 to 178"}
{"smiles": "COC(=O)CCSc1cc(C(C)(C)C)c(O)c(C(C)(C)C)c1", "melting point": "63.5 to 65.5"}
{"smiles": "COc1nc(Cl)cnc1NS(=O)(=O)c1cccc(F)c1Cl", "melting point": "159 to 160"}
{"smiles": "COc1cc2c(cc1OC)C(C(C)C)C(=O)CC2", "note": "(stereo not given)", "melting point": "77 to 79"}
{"smiles": "CCN(CC)C(=O)Cc1c(-c2ccc(OC)cc2)nn2c(C)cc(C)nc12", "melting point": "120 to 124"}
{"smiles": "CCCCc1nc2cccc(C(=O)NC(C)C)c2n1Cc1ccc(-c2ccccc2-c2nnn[nH]2)cc1", "melting point": "247 to 249"}
